Experiments:
full-length human ERα = biological target: T1, full-length human ERα (Homo sapiens, UniProt P03372); assay: 3X-ERE luciferase reporter gene assay in HepG2 cells, ERα; type: cell-based
T1 sequence (P03372 1-595): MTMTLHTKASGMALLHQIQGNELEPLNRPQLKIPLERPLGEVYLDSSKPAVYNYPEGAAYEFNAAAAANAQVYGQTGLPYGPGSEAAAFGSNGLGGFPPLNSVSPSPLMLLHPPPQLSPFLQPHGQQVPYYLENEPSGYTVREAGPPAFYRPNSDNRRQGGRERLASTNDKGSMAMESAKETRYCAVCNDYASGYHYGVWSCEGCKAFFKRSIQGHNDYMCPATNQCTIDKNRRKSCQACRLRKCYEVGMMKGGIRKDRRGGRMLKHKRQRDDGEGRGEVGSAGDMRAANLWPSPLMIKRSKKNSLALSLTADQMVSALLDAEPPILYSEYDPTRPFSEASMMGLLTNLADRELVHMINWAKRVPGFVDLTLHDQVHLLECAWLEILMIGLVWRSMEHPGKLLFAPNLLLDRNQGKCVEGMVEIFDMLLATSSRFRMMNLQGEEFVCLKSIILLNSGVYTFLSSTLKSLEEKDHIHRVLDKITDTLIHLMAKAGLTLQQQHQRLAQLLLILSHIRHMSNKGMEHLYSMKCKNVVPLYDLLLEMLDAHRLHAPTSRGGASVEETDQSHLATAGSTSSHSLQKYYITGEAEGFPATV

full-length human ERβ = full-length human ERβ (Homo sapiens, UniProt Q92731); assay: 3X-ERE luciferase reporter gene assay in HepG2 cells, ERβ; type: cell-based
full-length human ERβ, sequence (Q92731 whole entry): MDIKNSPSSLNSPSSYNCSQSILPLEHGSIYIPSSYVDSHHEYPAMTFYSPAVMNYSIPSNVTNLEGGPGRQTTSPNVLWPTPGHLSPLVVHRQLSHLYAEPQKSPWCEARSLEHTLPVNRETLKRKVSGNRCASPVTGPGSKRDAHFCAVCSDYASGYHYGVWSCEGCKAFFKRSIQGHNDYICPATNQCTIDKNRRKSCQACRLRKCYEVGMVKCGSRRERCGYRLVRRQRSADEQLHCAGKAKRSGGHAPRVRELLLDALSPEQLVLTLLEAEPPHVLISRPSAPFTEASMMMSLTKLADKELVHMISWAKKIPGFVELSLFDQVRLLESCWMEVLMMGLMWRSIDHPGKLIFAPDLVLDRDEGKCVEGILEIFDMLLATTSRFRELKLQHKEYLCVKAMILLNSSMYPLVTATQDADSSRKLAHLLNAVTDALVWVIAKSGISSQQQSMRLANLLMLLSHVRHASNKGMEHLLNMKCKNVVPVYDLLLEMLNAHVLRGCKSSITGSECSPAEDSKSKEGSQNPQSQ

Compound | EC50 (full-length human ERβ) [µM] | also measured
COc1ccc(OS(=O)(=O)[C@H]2C[C@H]3C(c4ccc(O)cc4)=C(c4ccc(O)cc4)[C@@H]2[S+]3[O-])cc1 (relative stereo) [Compound 10b] | > 10 | EC50 (full-length human ERα): > 10 µM
Cc1ccc(C2=C(c3ccc(C)cc3)[C@H]3[C@@H](S(=O)(=O)Oc4ccc(O)cc4)C[C@@H]2[S+]3[O-])cc1 (relative stereo) [Compound 14] | > 10 | –
Cc1cc(O)ccc1C1=C(c2ccc(O)cc2C)[C@H]2[C@@H](S(=O)(=O)Oc3cccc4ccccc34)C[C@@H]1[S+]2[O-] (relative stereo) [Compound 11j] | > 10 | –
O=S(=O)(Oc1ccc(O)cc1)[C@H]1C[C@H]2C(c3ccc(O)cc3)=C(c3ccc(O)cc3)[C@@H]1[S+]2[O-] (relative stereo) [Compound 10c] | > 10 | –
CCOC(=O)[C@@H]1[C@H](C(=O)OCC)[C@@H]2C(c3ccc(O)cc3)=C(c3ccc(O)cc3)[C@H]1[S+]2[O-] (relative stereo) [Compound 10e] | > 10 | EC50 (full-length human ERα): > 10 µM
O=S(=O)(Oc1ccccc1)[C@H]1C[C@H]2C(c3ccc(O)cc3)=C(c3ccc(O)cc3)[C@@H]1[S+]2[O-] (relative stereo) [Compound 10a] | > 10 | ERα functional profile (in words) (full-length human ERα): lacks ERα antagonist activity; ERβ agonist activity (in words) (full-length human ERβ): do not activate ERβ
Cc1cc(O)ccc1C1=C(c2ccc(O)cc2C)[C@H]2[C@@H](S(=O)(=O)Oc3ccccc3F)C[C@@H]1[S+]2[O-] (relative stereo) [Compound 11c] | > 10 | –
Cc1cc(O)ccc1C1=C(c2ccc(O)cc2C)[C@H]2[C@@H](S(=O)(=O)Oc3ccc(Cl)cc3)C[C@@H]1[S+]2[O-] (relative stereo) [Compound 11g] | > 10 | –
COc1ccc(OS(=O)(=O)[C@H]2C[C@H]3C(c4ccc(O)cc4C)=C(c4ccc(O)cc4C)[C@@H]2[S+]3[O-])cc1 (relative stereo) [Compound 11b] | > 10 | –
O=S(=O)(Oc1ccc(O)cc1)[C@H]1C[C@H]2C(c3ccccc3)=C(c3ccccc3)[C@@H]1[S+]2[O-] (relative stereo) [Compound 13] | > 10 | EC50 (full-length human ERα): > 10 µM
Cc1cc(O)ccc1C1=C(c2ccc(O)cc2C)[C@H]2[C@@H](S(=O)(=O)Oc3ccc(F)cc3)C[C@@H]1[S+]2[O-] (relative stereo) [Compound 11f] | > 10 | –
Cc1cc(O)ccc1C1=C(c2ccc(O)cc2C)[C@H]2[C@@H](S(=O)(=O)Oc3ccccc3Br)C[C@@H]1[S+]2[O-] (relative stereo) [Compound 11e] | > 10 | –

Further lines, with some results ahead:

EC50 (full-length human ERβ) [µM] | Compound | also measured
> 10 | Cc1cc(C2=C(c3ccc(O)c(C)c3)[C@H]3[C@@H](S(=O)(=O)Oc4cccc5ccccc45)C[C@@H]2[S+]3[O-])ccc1O (relative stereo) [Compound 12f] | –
> 10 | Cc1cc(C2=C(c3ccc(O)c(C)c3)[C@H]3[C@@H](S(=O)(=O)Oc4ccccc4)C[C@@H]2[S+]3[O-])ccc1O (relative stereo) [Compound 12a] | –
> 10 | Cc1cc(C2=C(c3ccc(O)c(C)c3)[C@H]3[C@@H](S(=O)(=O)Oc4ccccc4Br)C[C@@H]2[S+]3[O-])ccc1O (relative stereo) [Compound 12e] | –
> 10 | COc1ccc(OS(=O)(=O)[C@H]2C[C@H]3C(c4ccc(O)c(C)c4)=C(c4ccc(O)c(C)c4)[C@@H]2[S+]3[O-])cc1 (relative stereo) [Compound 12b] | –
> 10 | CCOC(=O)[C@@H]1[C@H](C(=O)OCC)[C@@H]2C(c3ccc(O)c(C)c3)=C(c3ccc(O)c(C)c3)[C@H]1[S+]2[O-] (relative stereo) [Compound 12i] | EC50 (full-length human ERα): > 10 µM
> 10 | Cc1cc(C2=C(c3ccc(O)c(C)c3)[C@H]3[C@@H](S(=O)(=O)Oc4ccccc4F)C[C@@H]2[S+]3[O-])ccc1O (relative stereo) [Compound 12c] | –
> 10 | Cc1cc(C2=C(c3ccc(O)c(C)c3)[C@H]3[C@@H](S(=O)(=O)Oc4ccccc4Cl)C[C@@H]2[S+]3[O-])ccc1O (relative stereo) [Compound 12d] | –

From PMC3297713 (Journal of Medicinal Chemistry, 2012)
